Measured values from PubChem BioAssay AID248 (DTP/NCI, 2004).
Toxic doses and inconclusive results are not listed. Cut-off read from the data, not from the text of the source: active = T/C of 150% or more; inactive = T/C below 125%.

System: L1210 leukemia ip in BDF1 mice, survival T/C
Assay: NCI In Vivo Anticancer Drug Screen. Data for tumor model L1210 Leukemia (intraperitoneal) in B6D2F1 (BDF1) mice
Conditions: endpoint: mean survival time, higher = longer survival
How it was run: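 Read-out is survival time, reported as the treated-group measurement over the vehicle-control measurement.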

[1] = dose: 100.0 mg/kg/injection, schedule: Q01DX001 (ip), vehicle: Klucel (hydroxypropylcellulose) (HPC)
[2] = dose: 100.0 mg/kg/injection, schedule: Q04DX003 (ip), vehicle: saline with Tween-80
[3] = dose: 200.0 mg/kg/injection, schedule: Q04DX003 (ip), vehicle: saline with Tween-80
[4] = dose: 100.0 mg/kg/injection, schedule: Q01DX009 (ip), vehicle: saline
[5] = dose: 100.0 mg/kg/injection, schedule: Q04DX003 (ip), vehicle: saline
[6] = dose: 200.0 mg/kg/injection, schedule: Q01DX009 (ip), vehicle: saline
[7] = dose: 200.0 mg/kg/injection, schedule: Q04DX003 (ip), vehicle: saline
[8] = dose: 400.0 mg/kg/injection, schedule: Q04DX003 (ip), vehicle: saline
[9] = dose: 200.0 mg/kg/injection, schedule: Q01DX001 (ip), vehicle: Klucel (hydroxypropylcellulose) (HPC)
[10] = dose: 400.0 mg/kg/injection, schedule: Q01DX001 (ip), vehicle: Klucel (hydroxypropylcellulose) (HPC)
[11] = dose: 100.0 mg/kg/injection, schedule: Q01DX001 (ip), vehicle: other
[12] = dose: 200.0 mg/kg/injection, schedule: Q01DX001 (ip), vehicle: other
[13] = dose: 400.0 mg/kg/injection, schedule: Q01DX001 (ip), vehicle: other
[14] = dose: 100.0 mg/kg/injection, schedule: Q01DX001 (ip), vehicle: saline
[15] = dose: 200.0 mg/kg/injection, schedule: Q01DX001 (ip), vehicle: saline
[16] = dose: 400.0 mg/kg/injection, schedule: Q01DX001 (ip), vehicle: saline
[17] = dose: 50.0 mg/kg/injection, schedule: Q01DX009 (ip), vehicle: saline
[18] = dose: 25.0 mg/kg/injection, schedule: Q01DX009 (ip), vehicle: saline
[19] = dose: 25.0 mg/kg/injection, schedule: Q04DX003 (ip), vehicle: saline
[20] = dose: 50.0 mg/kg/injection, schedule: Q04DX003 (ip), vehicle: saline

Measured: T/C

O=C(C#CC(=O)c1ccccc1)c1ccccc1
inactive: dose: 20.0 mg/kg/injection, schedule: Q04DX003 (ip), vehicle: gum acacia 95 % of control | dose: 40.0 mg/kg/injection, schedule: Q04DX003 (ip), vehicle: gum acacia 101 % of control | dose: 80.0 mg/kg/injection, schedule: Q04DX003 (ip), vehicle: gum acacia 100 % of control

[B-][N+](C)(C)C
inactive: dose: 3.13 mg/kg/injection, schedule: Q01DX001 (ip), vehicle: Klucel (hydroxypropylcellulose) (HPC) 99 % of control | dose: 6.25 mg/kg/injection, schedule: Q01DX001 (ip), vehicle: Klucel (hydroxypropylcellulose) (HPC) 101 % of control | dose: 12.5 mg/kg/injection, schedule: Q01DX001 (ip), vehicle: Klucel (hydroxypropylcellulose) (HPC) 99 % of control | dose: 25.0 mg/kg/injection, schedule: Q01DX001 (ip), vehicle: Klucel (hydroxypropylcellulose) (HPC) 106 % of control | dose: 50.0 mg/kg/injection, schedule: Q01DX001 (ip), vehicle: Klucel (hydroxypropylcellulose) (HPC) 109 % of control | [1] 103 % of control

CCCc1nc2ccccc2[nH]1
inactive: [2] 96 % of control | [3] 100 % of control

CN(C)/N=C/C=C/c1ccccc1
inactive: dose: 25.0 mg/kg/injection, schedule: Q01DX009 (ip), vehicle: Klucel (hydroxypropylcellulose) (HPC) 98 % of control | dose: 50.0 mg/kg/injection, schedule: Q01DX009 (ip), vehicle: Klucel (hydroxypropylcellulose) (HPC) 102 % of control | dose: 50.0 mg/kg/injection, schedule: Q04DX003 (ip), vehicle: Klucel (hydroxypropylcellulose) (HPC) 100 % of control | dose: 100.0 mg/kg/injection, schedule: Q01DX009 (ip), vehicle: Klucel (hydroxypropylcellulose) (HPC) 88 % of control | [4] 105 % of control | dose: 100.0 mg/kg/injection, schedule: Q04DX003 (ip), vehicle: Klucel (hydroxypropylcellulose) (HPC) 99 % of control | [5] 98 % of control | [6] 100 % of control | dose: 200.0 mg/kg/injection, schedule: Q04DX003 (ip), vehicle: Klucel (hydroxypropylcellulose) (HPC) 97 % of control | [7] 97 % of control | [8] 102 % of control

O=C(/C=C/c1ccccc1)C1(c2ccccc2)CC1
inactive: [1] 98 % of control | [9] 100 % of control | [10] 98 % of control

CC(C)C(=O)Nc1cc(Cl)ccc1Cl
inactive: [11] 94 % of control | [12] 97 % of control | [13] 92 % of control

Nc1nc(Cl)c(CCCCc2ccccc2)c(C(=O)O)n1
inactive: [1] 93 % of control | [9] 91 % of control | [10] 101 % of control

CC(C)N(CSc1ccc([N+](=O)[O-])cc1)CSc1ccc([N+](=O)[O-])cc1
inactive: [14] 100 % of control | [15] 96 % of control | [16] 98 % of control

C(/CCc1ccccc1)=N\Nc1nnc(N/N=C/CCc2ccccc2)c2ccccc12
inactive: dose: 50.0 mg/kg/injection, schedule: Q01DX001 (ip), vehicle: carboxymethylcellulose (CMC) 102 % of control | dose: 100.0 mg/kg/injection, schedule: Q01DX001 (ip), vehicle: carboxymethylcellulose (CMC) 105 % of control | dose: 200.0 mg/kg/injection, schedule: Q01DX001 (ip), vehicle: carboxymethylcellulose (CMC) 102 % of control

COc1ccccc1[N+](C)(C)C
inactive: [14] 102 % of control

O=C(Nc1ccccc1)OC1C=CC2CCC1C2 (stereo unspecified)
inactive: [14] 90 % of control | [15] 87 % of control | [16] 87 % of control

COc1ccc(Cl)cc1NC(=O)c1ccc(Cl)cc1Cl
inactive: dose: 100.0 mg/kg/injection, schedule: Q01DX009 (ip), vehicle: saline with Tween-80 96 % of control | [2] 98 % of control | dose: 200.0 mg/kg/injection, schedule: Q01DX009 (ip), vehicle: saline with Tween-80 94 % of control | [3] 93 % of control | dose: 400.0 mg/kg/injection, schedule: Q01DX009 (ip), vehicle: saline with Tween-80 102 % of control | dose: 400.0 mg/kg/injection, schedule: Q04DX003 (ip), vehicle: saline with Tween-80 97 % of control

CC(C)(CO)NC=O (tested in a mixture with another compound)
inactive: [17] 107 % of control | [4] 113 % of control | [6] 113 % of control

CC(=O)Nc1nc(Cl)c2ncn(C3OC(COC(=O)c4ccccc4)CC3OC(=O)c3ccccc3)c2n1 (stereo unspecified)
inactive: dose: 50.0 mg/kg/injection, schedule: Q01DX001 (ip), vehicle: saline 93 % of control | [14] 95 % of control | [15] 101 % of control | [16] 93 % of control

O=P(O)(O)OCC1OC(n2cnc3c(Cl)ncnc32)C(O)C1O (stereo unspecified)
inactive: dose: 50.0 mg/kg/injection, schedule: Q04DX002 (ip), vehicle: saline 115 % of control | dose: 100.0 mg/kg/injection, schedule: Q04DX002 (ip), vehicle: saline 100 % of control | dose: 200.0 mg/kg/injection, schedule: Q04DX002 (ip), vehicle: saline 123 % of control

COc1ccc(-c2cc3c(OC)ccc(OC)c3[nH]2)cc1
inactive: dose: 100.0 mg/kg/injection, schedule: Q04DX002 (ip), vehicle: Klucel (hydroxypropylcellulose) (HPC) 93 % of control | dose: 200.0 mg/kg/injection, schedule: Q04DX002 (ip), vehicle: Klucel (hydroxypropylcellulose) (HPC) 102 % of control | dose: 400.0 mg/kg/injection, schedule: Q04DX002 (ip), vehicle: Klucel (hydroxypropylcellulose) (HPC) 93 % of control

CSc1nc(Cl)nc(C(Cl)(Cl)Cl)c1Cl
inactive: [1] 89 % of control | [9] 103 % of control | [10] 89 % of control

CC1CC(Cc2ccccc2CC2CC(C)OC2=O)C(=O)O1 (stereo unspecified)
inactive: [5] 90 % of control | [7] 89 % of control | [8] 89 % of control

O=C1CCCCCCNCCCCCC1
inactive: dose: 100.0 mg/kg/injection, schedule: Q01DX001 (ip), vehicle: acetone 97 % of control | dose: 200.0 mg/kg/injection, schedule: Q01DX001 (ip), vehicle: acetone 108 % of control | dose: 400.0 mg/kg/injection, schedule: Q01DX001 (ip), vehicle: acetone 103 % of control

Cc1ccc(S(=O)(=O)OC2CCCC2OS(=O)(=O)c2ccc(C)cc2)cc1 (stereo unspecified)
inactive: [11] 96 % of control | [12] 95 % of control | [13] 91 % of control

COc1ccn(C)c(=O)n1
inactive: dose: 12.5 mg/kg/injection, schedule: Q01DX009 (ip), vehicle: saline 112 % of control | dose: 12.5 mg/kg/injection, schedule: Q04DX003 (ip), vehicle: saline 110 % of control | [18] 93 % of control | [19] 91 % of control | [20] 96 % of control

CN=C(Nc1ccccc1)SC
inactive: [18] 92 % of control | [19] 94 % of control | [17] 105 % of control | [20] 97 % of control | [14] 104 % of control | [4] 105 % of control | [5] 97 % of control

NC(=O)c1ccccc1Nc1ccc([N+](=O)[O-])cc1[N+](=O)[O-]
inactive: dose: 34.0 mg/kg/injection, schedule: Q01DX Z (ip), vehicle: carboxymethylcellulose (CMC) 95 % of control | dose: 49.0 mg/kg/injection, schedule: Q01DX Z (ip), vehicle: carboxymethylcellulose (CMC) 95 % of control
